Reference: patent US4520112A, “Assay method for organic calcium antagonist drugs and a kit for such an assay” (The Johns Hopkins University, priority 1983, dated 1985)

Test system: calcium channel receptor (bovine cerebral cortex membranes)
Experiment: 3H-nitrendipine binding to cerebral cortex membranes (calcium channel receptor)
Details: drug added to human plasma

| Compound | effect on 3H-nitrendipine binding |
| --- | --- |
| COCCOC(=O)C1=C(C)NC(C)=C(C(=O)OC(C)C)C1c1cccc([N+](=O)[O-])c1 (stereo not shown) [Nimodipine, nimodipine] | inhibition |
| COc1ccc([C@@H]2Sc3ccccc3N(CCN(C)C)C(=O)[C@@H]2OC(C)=O)cc1 [diltiazem] | reversal of tiapamil induced reduction |
| CC(Cc1ccccc1)NCCC(c1ccccc1)c1ccccc1 (stereo not shown) [prenylamine] | inhibition |
| COc1ccc(CCN(C)CCCC2(c3ccc(OC)c(OC)c3)S(=O)(=O)CCCS2(=O)=O)cc1OC [tiapamil] | reduction |

Test system: calcium antagonist receptors
Experiment: not given
Details: literature reports; cited from earlier work

| Compound | effect on 3H-nitrendipine binding |
| --- | --- |
| COc1ccc([C@@H]2Sc3ccccc3N(CCN(C)C)C(=O)[C@@H]2OC(C)=O)cc1 [diltiazem] | interact allosterically with the same receptor site and also reduce ^3 H-nitrendipine binding |
| COC(=O)C1=C(C)NC(C)=C(C(=O)OC)C1c1ccccc1[N+](=O)[O-] [nifedipine] | compete directly |
| COc1ccc(CCN(C)CCCC(C#N)(c2ccc(OC)c(OC)c2)C(C)C)cc1OC (stereo not shown) [verapamil] | interact allosterically with the same receptor site and also reduce ^3 H-nitrendipine binding |
